Active and inactive are the calls of the source. No cut-off for these calls is given here. Where a SMILES comes first, the peptide text is derived from it. [ ]: non-standard residue; d: D form. Igl = N[C@H](C(=O)O)C1Cc2ccccc2C1; hArg = N=C(N)NCCCC[C@H](N)C(=O)O; Tic = O=C(O)[C@@H]1Cc2ccccc2CN1; Cit = NC(=O)NCCC[C@H](N)C(=O)O
target: Calcitonin gene-related peptide type 1 receptor (Homo sapiens) (UniProt Q16602); assay: Agonist activity at human CGRP1 receptor in human SK-N-MC cells
Sequence (Q16602 whole entry, looked up): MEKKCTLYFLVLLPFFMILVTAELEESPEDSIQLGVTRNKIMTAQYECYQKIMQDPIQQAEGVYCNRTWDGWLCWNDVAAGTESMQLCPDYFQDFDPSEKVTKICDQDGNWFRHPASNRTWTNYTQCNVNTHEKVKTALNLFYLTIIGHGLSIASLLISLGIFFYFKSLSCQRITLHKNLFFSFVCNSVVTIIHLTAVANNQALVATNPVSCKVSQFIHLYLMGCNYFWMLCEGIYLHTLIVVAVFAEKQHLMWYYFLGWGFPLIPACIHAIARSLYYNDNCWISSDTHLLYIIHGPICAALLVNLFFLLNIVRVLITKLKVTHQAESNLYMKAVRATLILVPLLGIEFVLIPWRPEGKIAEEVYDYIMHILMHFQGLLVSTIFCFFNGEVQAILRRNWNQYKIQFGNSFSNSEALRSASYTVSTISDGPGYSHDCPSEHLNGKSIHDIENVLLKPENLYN

Compound | Activity
CC(=O)N[C@@H](Cc1c[nH]c2ccccc12)C(=O)N[C@H](C(=O)N[C@H](C(=O)N[C@@H](Cc1cnc[nH]1)C(=O)N[C@@H](CCCNC(N)=O)C(=O)N[C@@H](CC(C)C)C(=O)N[C@@H](C)C(=O)NCC(=O)N[C@@H](CC(C)C)C(=O)N[C@@H](CC(C)C)C(=O)N[C@@H](CO)C(=O)N[C@@H](CCCNC(N)=O)C(=O)N[C@@H](CO)C(=O)NCC(=O)NCC(=O)N[C@H](C(=O)N[C@H](C(=O)N[C@@H](CCCCNC(=N)N)C(=O)N[C@@H](CCCCN)C(=O)N[C@@H](CC(N)=O)C(=O)N[C@@H](Cc1ccccc1)C(=O)N[C@H](C(=O)N1CCC[C@H]1C(=O)N[C@H](C(=O)N[C@@H](CC(=O)O)C(=O)N[C@H](C(=O)NCC(=O)N1Cc2[nH]c3ccccc3c2C[C@H]1C(=O)N[C@@H](Cc1ccccc1)C(=O)N[C@@H](C)C(=O)N[C@@H](Cc1ccccc1)C(N)=O)C(C)C)[C@@H](C)O)C(C)C)C(C)C)C(C)C)[C@@H](C)O)C(C)C | inactive
CC(=O)N[C@@H](Cc1c[nH]c2ccccc12)C(=O)N[C@H](C(=O)N[C@H](C(=O)N[C@@H](Cc1cnc[nH]1)C(=O)N[C@@H](CCCNC(N)=O)C(=O)N[C@@H](CC(C)C)C(=O)N[C@@H](C)C(=O)NCC(=O)N[C@@H](CC(C)C)C(=O)N[C@@H](CC(C)C)C(=O)N[C@@H](CO)C(=O)N[C@@H](CCCNC(N)=O)C(=O)N[C@@H](CO)C(=O)NCC(=O)NCC(=O)N[C@H](C(=O)N[C@H](C(=O)N[C@@H](CCCCNC(=N)N)C(=O)N[C@@H](CCCCN)C(=O)N[C@@H](CC(N)=O)C(=O)N[C@@H](Cc1ccccc1)C(=O)N[C@H](C(=O)N1CCC[C@H]1C(=O)N[C@H](C(=O)N[C@@H](CC(=O)O)C(=O)N[C@H](C(=O)NCC(=O)NC1(C(=O)N[C@@H](Cc2ccccc2)C(=O)N[C@@H](C)C(=O)N[C@@H](Cc2ccccc2)C(N)=O)CCNCC1)C(C)C)[C@@H](C)O)C(C)C)C(C)C)C(C)C)[C@@H](C)O)C(C)C | inactive
CC(=O)N[C@H](C(=O)N[C@H](C(=O)N[C@@H](Cc1cnc[nH]1)C(=O)N[C@@H](CCCNC(=N)N)C(=O)N[C@@H](CC(C)C)C(=O)N[C@@H](C)C(=O)NCC(=O)N[C@@H](CC(C)C)C(=O)N[C@@H](CC(C)C)C(=O)N[C@@H](CO)C(=O)N[C@@H](CCCNC(=N)N)C(=O)N[C@@H](CO)C(=O)NCC(=O)NCC(=O)N[C@H](C(=O)N[C@H](C(=O)N[C@@H](CCCNC(=N)N)C(=O)N[C@@H](CCCCN)C(=O)N[C@@H](CC(N)=O)C(=O)N[C@@H](Cc1ccccc1)C(=O)N[C@H](C(=O)N1CCC[C@H]1C(=O)N[C@H](C(=O)N[C@@H](CC(=O)O)C(=O)N[C@H](C(=O)NCC(=O)N1CCC[C@H]1C(=O)N[C@@H](Cc1ccccc1)C(=O)N[C@@H](C)C(=O)N[C@@H](Cc1ccccc1)C(N)=O)C(C)C)[C@@H](C)O)C(C)C)C(C)C)C(C)C)[C@@H](C)O)C(C)C (Ac-VTHRLAGLLSRSGGVVRKNFVPTDVGPFAF-NH2) | inactive
CC(C)C[C@H](NC(=O)CNC(=O)[C@H](C)NC(=O)[C@H](CC(C)C)NC(=O)[C@H](CCCNC(=N)N)NC(=O)[C@H](Cc1cnc[nH]1)NC(=O)[C@@H](NC(=O)[C@@H](NC(=O)[C@@H](N)Cc1c[nH]c2ccccc12)C(C)C)[C@@H](C)O)C(=O)N[C@@H](CC(C)C)C(=O)N[C@@H](CO)C(=O)N[C@@H](CCCNC(=N)N)C(=O)N[C@@H](CO)C(=O)NCC(=O)NCC(=O)N[C@H](C(=O)N[C@H](C(=O)N[C@@H](CCCCN)C(=O)N[C@@H](CC(N)=O)C(=O)N[C@@H](CC(N)=O)C(=O)N[C@@H](Cc1ccccc1)C(=O)N[C@H](C(=O)N1CCC[C@H]1C(=O)N[C@H](C(=O)N[C@@H](CC(N)=O)C(=O)N[C@H](C(=O)NCC(=O)N[C@@H](CO)C(=O)N[C@@H](CCCCN)C(=O)N[C@@H](C)C(=O)N[C@@H](Cc1ccccc1)C(N)=O)C(C)C)[C@@H](C)O)C(C)C)C(C)C)C(C)C | inactive
CC(=O)N[C@@H](Cc1c[nH]c2ccccc12)C(=O)N[C@H](C(=O)N[C@H](C(=O)N[C@@H](Cc1cnc[nH]1)C(=O)N[C@@H](CCCNC(N)=O)C(=O)N[C@@H](CC(C)C)C(=O)N[C@@H](C)C(=O)NCC(=O)N[C@@H](CC(C)C)C(=O)N[C@@H](CC(C)C)C(=O)N[C@@H](CO)C(=O)N[C@@H](CCCNC(N)=O)C(=O)N[C@@H](CO)C(=O)NCC(=O)NCC(=O)N[C@H](C(=O)N[C@H](C(=O)N[C@@H](CCCCNC(=N)N)C(=O)N[C@@H](CCCCN)C(=O)N[C@@H](CC(N)=O)C(=O)N[C@@H](Cc1ccc2ccccc2c1)C(=O)N[C@H](C(=O)N1CCC[C@H]1C(=O)N[C@H](C(=O)N[C@@H](CC(=O)O)C(=O)N[C@H](C(=O)NCC(=O)N1C2CCCCC2C[C@H]1C(=O)N[C@@H](Cc1ccccc1)C(=O)N[C@@H](C)C(=O)N[C@@H](Cc1ccc2ccccc2c1)C(N)=O)C(C)C)[C@@H](C)O)C(C)C)C(C)C)C(C)C)[C@@H](C)O)C(C)C (stereo partly specified) | inactive

Results, then the compound that gave them:

Activity | Compound
inactive | CC(=O)N[C@@H](Cc1c[nH]c2ccccc12)C(=O)N[C@H](C(=O)N[C@H](C(=O)N[C@@H](Cc1cnc[nH]1)C(=O)N[C@@H](CCCNC(N)=O)C(=O)N[C@@H](CC(C)C)C(=O)N[C@@H](C)C(=O)NCC(=O)N[C@@H](CC(C)C)C(=O)N[C@@H](CC(C)C)C(=O)N[C@@H](CO)C(=O)N[C@@H](CCCNC(N)=O)C(=O)N[C@@H](CO)C(=O)NCC(=O)NCC(=O)N[C@H](C(=O)N[C@H](C(=O)N[C@@H](CCCCNC(=N)N)C(=O)N[C@@H](CCCCN)C(=O)N[C@@H](CC(N)=O)C(=O)N[C@@H](Cc1ccccc1)C(=O)N[C@H](C(=O)N1CCC[C@H]1C(=O)N[C@H](C(=O)N[C@@H](CC(=O)O)C(=O)N[C@H](C(=O)NCC(=O)N1CCC[C@@H]1C(=O)N[C@@H](Cc1ccc(-c2ccccc2)cc1)C(=O)N[C@@H](C)C(=O)N[C@@H](Cc1ccccc1)C(N)=O)C(C)C)[C@@H](C)O)C(C)C)C(C)C)C(C)C)[C@@H](C)O)C(C)C
inactive | CC(=O)N[C@@H](Cc1c[nH]c2ccccc12)C(=O)N[C@H](C(=O)N[C@H](C(=O)N[C@@H](Cc1cnc[nH]1)C(=O)N[C@@H](CCCNC(N)=O)C(=O)N[C@@H](CC(C)C)C(=O)N[C@@H](C)C(=O)NCC(=O)N[C@@H](CC(C)C)C(=O)N[C@@H](CC(C)C)C(=O)N[C@@H](CO)C(=O)N[C@@H](CCCNC(N)=O)C(=O)N[C@@H](CO)C(=O)NCC(=O)NCC(=O)N[C@H](C(=O)N[C@H](C(=O)N[C@@H](CCCCNC(=N)N)C(=O)N[C@@H](CCCCN)C(=O)N[C@@H](CC(N)=O)C(=O)N[C@@H](Cc1ccccc1)C(=O)N[C@H](C(=O)N1CCC[C@H]1C(=O)N[C@H](C(=O)N[C@@H](CC(=O)O)C(=O)N[C@H](C(=O)NCC(=O)N1CCC[C@H]1C(=O)N1Cc2ccccc2C[C@H]1C(=O)N[C@@H](C)C(=O)N[C@@H](Cc1ccccc1)C(N)=O)C(C)C)[C@@H](C)O)C(C)C)C(C)C)C(C)C)[C@@H](C)O)C(C)C (Ac-WVTH[Cit]LAGLLS[Cit]SGGVV[hArg]KNFVPTDVGP[Tic]AF-NH2)
inactive | CC(=O)N[C@@H](Cc1c[nH]c2ccccc12)C(=O)N[C@H](C(=O)N[C@H](C(=O)N[C@@H](Cc1cnc[nH]1)C(=O)N[C@@H](CCCNC(N)=O)C(=O)N[C@@H](CC(C)C)C(=O)N[C@@H](C)C(=O)NCC(=O)N[C@@H](CC(C)C)C(=O)N[C@@H](CC(C)C)C(=O)N[C@@H](CO)C(=O)N[C@@H](CCCNC(N)=O)C(=O)N[C@@H](CO)C(=O)NCC(=O)NCC(=O)N[C@H](C(=O)N[C@H](C(=O)N[C@@H](CCCCNC(=N)N)C(=O)N[C@@H](CCCCN)C(=O)N[C@@H](CC(N)=O)C(=O)N[C@@H](Cc1ccccc1)C(=O)N[C@H](C(=O)N1CCC[C@H]1C(=O)N[C@H](C(=O)N[C@@H](CC(=O)O)C(=O)N[C@H](C(=O)NCC(=O)N1C[C@H](O)C[C@H]1C(=O)N[C@@H](Cc1ccccc1)C(=O)N[C@@H](C)C(=O)N[C@@H](Cc1ccccc1)C(N)=O)C(C)C)[C@@H](C)O)C(C)C)C(C)C)C(C)C)[C@@H](C)O)C(C)C
inactive | CC(=O)N[C@@H](Cc1c[nH]c2ccccc12)C(=O)N[C@H](C(=O)N[C@H](C(=O)N[C@@H](Cc1cnc[nH]1)C(=O)N[C@@H](CCCNC(N)=O)C(=O)N[C@@H](CC(C)C)C(=O)N[C@@H](C)C(=O)NCC(=O)N[C@@H](CC(C)C)C(=O)N[C@@H](CC(C)C)C(=O)N[C@@H](CO)C(=O)N[C@@H](CCCNC(N)=O)C(=O)N[C@@H](CO)C(=O)NCC(=O)NCC(=O)N[C@H](C(=O)N[C@H](C(=O)N[C@@H](CCCCNC(=N)N)C(=O)N[C@@H](CCCCN)C(=O)N[C@@H](CC(N)=O)C(=O)N[C@@H](Cc1ccccc1)C(=O)N[C@H](C(=O)N1CCC[C@H]1C(=O)N[C@H](C(=O)N[C@@H](CC(=O)O)C(=O)N[C@H](C(=O)NCC(=O)N1CSC[C@H]1C(=O)N[C@@H](Cc1ccccc1)C(=O)N[C@@H](C)C(=O)N[C@@H](Cc1ccccc1)C(N)=O)C(C)C)[C@@H](C)O)C(C)C)C(C)C)C(C)C)[C@@H](C)O)C(C)C
inactive | CC(=O)N[C@@H](Cc1c[nH]c2ccccc12)C(=O)N[C@H](C(=O)N[C@H](C(=O)N[C@@H](Cc1cnc[nH]1)C(=O)N[C@@H](CCCNC(N)=O)C(=O)N[C@@H](CC(C)C)C(=O)N[C@@H](C)C(=O)NCC(=O)N[C@@H](CC(C)C)C(=O)N[C@@H](CC(C)C)C(=O)N[C@@H](CO)C(=O)N[C@@H](CCCNC(N)=O)C(=O)N[C@@H](CO)C(=O)NCC(=O)NCC(=O)N[C@H](C(=O)N[C@H](C(=O)N[C@@H](CCCNC(=N)N)C(=O)N[C@@H](CCCCN)C(=O)N[C@@H](CC(N)=O)C(=O)N[C@@H](Cc1ccccc1)C(=O)N[C@H](C(=O)N1CCC[C@H]1C(=O)N[C@H](C(=O)N[C@@H](CC(=O)O)C(=O)N[C@H](C(=O)NCC(=O)N1C2CCCCC2C[C@H]1C(=O)N[C@@H](Cc1ccccc1)C(=O)N[C@@H](C)C(=O)N[C@@H](Cc1ccccc1)C(N)=O)C(C)C)[C@@H](C)O)C(C)C)C(C)C)C(C)C)[C@@H](C)O)C(C)C (stereo partly specified)
inactive | CC(=O)N[C@@H](Cc1c[nH]c2ccccc12)C(=O)N[C@H](C(=O)N[C@H](C(=O)N[C@@H](Cc1cnc[nH]1)C(=O)N[C@@H](CCCNC(N)=O)C(=O)N[C@@H](CC(C)C)C(=O)N[C@@H](C)C(=O)NCC(=O)N[C@@H](CC(C)C)C(=O)N[C@@H](CC(C)C)C(=O)N[C@@H](CO)C(=O)N[C@@H](CCCNC(N)=O)C(=O)N[C@@H](CO)C(=O)NCC(=O)NCC(=O)N[C@H](C(=O)N[C@H](C(=O)N[C@@H](CCCCNC(=N)N)C(=O)N[C@@H](CCCCN)C(=O)N[C@@H](CC(N)=O)C(=O)N[C@@H](Cc1ccccc1)C(=O)N[C@H](C(=O)N1CCC[C@H]1C(=O)N[C@H](C(=O)N[C@@H](CC(=O)O)C(=O)N[C@H](C(=O)NCC(=O)N1CCC[C@H]1C(=O)N[C@H](C(=O)N[C@@H](C)C(=O)N[C@@H](Cc1ccccc1)C(N)=O)C1Cc2ccccc2C1)C(C)C)[C@@H](C)O)C(C)C)C(C)C)C(C)C)[C@@H](C)O)C(C)C (Ac-WVTH[Cit]LAGLLS[Cit]SGGVV[hArg]KNFVPTDVGP[Igl]AF-NH2)

Reference: ChEMBL document CHEMBL1151745, “Identification of potent, selective, and metabolically stable peptide antagonists to the calcitonin gene-related peptide (CGRP) receptor” (J Med Chem, 2008)
